Laboratory results taken from patent publication US10933126B2, “Clostridium difficile immunogenic compositions and methods of use” (The Board of Regents of the University of Oklahoma, priority 2018, dated 2021).

Experiments:
PSII = tested on: PSII; set-up: species or system B6 mice; conditions: mouse, in vivo
[1] = tested on: C. difficile VPI 10463 spores; assay: C. difficile spore challenge assay in immunized B6 mice (body weight); format: in vivo; conditions: 10^4 spores
Description: Non-immunized age- and sex-matched naïve B6 mice were Cefoperazone-treated and then treated with vehicle only (a) or were infected with 10^4 live C. difficile spores (b). Some mice were administered PSII alone followed by a PSII booster one week later (c), or administered vehicle only followed by the PSII booster one week later (d), or administered α-GC alone followed by the PSII booster (e), or administered a PSII and α-GC combination followed by the PSII booster (f), or administered α-GC alone followed by vehicle (g). Animals were then treated with the antibiotic Cefoperazone prior to being infected with 10^4 live C. difficile spores. Graphs show the percent of original weight, which was obtained daily and for the duration indicated. Five mice were used for each group except for the naïve-infected and the PSII/α-GC groups (n=10). […] In the uninfected control group (a), zero counts were detected (limit of detection in assay=10^2).
Immunizations: Mice were immunized s.c. in both flanks with a total of 15 μg or 50 μg PSII or PSII plus 4 μg α-GC, in a 200 μl total volume of sterile low-endotoxin PBS. The amount of α-GC administered has been determined in previous studies to exert a strong CD1d- and NKT-dependent effect on Ab responses. […]
Animal weight was then measured daily. […]

Which results are given for `CCCCCCCCCCCCCCCCCCCCCCCCCC(=O)N[C@@H](CO[C@H]1O[C@H](CO)[C@H](O)[C@H](O)[C@H]1O)[C@H](O)[C@H](O)CCCCCCCCCCCCCC` [α-GC, (2S,3S,4R)-1-O-(α-D-Galactosyl)-N-hexacosanoyl-2-amino-1,3,4-octadecanetriol]?
Anti-PSII titers (PSII): could not be detected; Body weight after C. difficile challenge ([1]; α-GC alone, w/o a PSII booster (FIG. 6g)): did not protect against weight loss; Body weight after C. difficile challenge ([1]; α-GC followed one week later with PSII (FIG. 6e)): no weight loss was observed
